Results taken from patent US10265378B2, “Combination therapy for head and neck cancer” (Cornell University, priority 2014, dated 2019).

Key:
[1] = system: GO categories in mouse tongue; experiment: Gene ontology (GO) analysis of RNA-Seq data; type: in vivo; settings: compared to the 4-NQO group
Protocol: Gene ontology (GO) analysis. Gene ontology (GO) analysis (p-value cutoff: 0.00001), using the ConsensusPathDB online tool, was conducted on the Gene Ontology level 3 of the “Biological Process” domain that has predefined, functional sets for enrichment analysis with default parameter settings.

[2] = system: 4-hydroxynonenal (4-HNE), marker of oxidative stress; experiment: Immunohistochemistry of tongue epithelium: 4-HNE; type: in vivo, mouse; settings: compared to the 4-NQO group; antibody staining
Protocol: (§1) Immunohistochemistry. Paraffin embedded tongue sections were stained with various antibodies (supporting information).
(§2) Immunohistochemistry. Paraffin-embedded sections (from two to four mice per group) were deparaffinized and rehydrated, and antigen retrieval was performed using an antigen unmasking solution (Vector Laboratories, H-3300). After quenching endogenous peroxidase with 3% H2O2, the tissue sections were blocked with the blocking reagent (from the M.O.M. kit from Vector Laboratories for 4-HNE) or 10% goat serum (Vector Laboratories). Then, tissue sections were incubated with a 4-HNE antibody (1:700; mouse monoclonal antibody; Abcam, ab48506), a β-catenin antibody (1:400; rabbit polyclonal antibody; Abcam, ab6302), or a MMP9 antibody (1:70; rabbit polyclonal antibody; Abcam, ab38898), respectively, overnight at 4° C. The sections were then incubated with secondary antibodies (1:200, anti-mouse IgG from the M.O.M kit for 4-1-INE; ready-to-use anti-rabbit IgG from the Invitrogen SuperPicture kit for β-catenin and MMP9). As a negative control, sections were stained without incubation with primary antibodies. The signals were visualized based on a peroxidase detection mechanism with 3,3-diaminobenzidine (DAB) used as the substrate. Four to five representative areas of each mouse tongue section from two to four mice per group were photographed and analyzed.

[3] = system: β-catenin; experiment: Immunohistochemistry of tongue epithelium: β-catenin; type: in vivo, mouse; settings: compared to the 4-NQO group; antibody staining
Protocol: as §1, §2

[4] = Consumption of drug containing drinking water and diet; type: in vivo, mouse; settings: 4-NQO treated mice, 15 week post 4-NQO treatment
Text: Drug treatments reduce tongue tumor development. All of the mice tolerated the 10 week 4-NQO treatment, and almost all of the mice survived the 15 week post 4-NQO treatment period (A). We determined that the CD1530 in the regular drinking water was stable for at least 7 days at room temperature by HPLC analysis (FIG. 7); thus, we decided to use drinking water as a delivery method because this method is effective and less laborious.

[5] = system: pathways (Reactome, KEGG, MouseCyc) in mouse tongue; experiment: Pathway enrichment analysis (ConsensusPathDB) of RNA-Seq data
Protocol: RNA-Seq analysis of mRNA transcriptome. Representative tongue samples were chosen for the RNA-Seq analysis: untreated (n=5), 4-NQO treatment group (n=3), 4N+B (n=4), 4N+C (n=4), and 4N+B+C (n=5). The extraction of total cellular RNA from mouse tissues was carried out using the RNeasy kit (Qiagen). Subsequent RNA preparation steps were carried out at the Genomics Resources Core Facility of WCMC. The measurement of RNA integrity was determined using the Agilent 2100 BioAnalyzer (Agilent Technologies). Samples with RNA integrity number (RIN) values of 10 were used to construct cDNA libraries. mRNA was purified by using pre-prepared Sera-mag Magnetic Oligo(dT) Beads from Illumina Inc. (SanDiego, Calif.), subjected to thermal fragmentation, and reverse transcribed to first strand cDNA. Following the removal of mRNA strands by RNaseH, first strand cDNAs were used as templates to produce double strand cDNAs, and the overhangs resulting from fragmentation were repaired to blunt ends. An ‘A’ base was added to the 3′ end of cDNAs and subsequently the cDNAs were ligated to Illumina paired end (PE) adaptors that have a single ‘T’ base overhang at their 3′ end. The cDNA-adaptor libraries were purified and enriched by 15 cycles of PCR. The enriched libraries were hybridized to a flow cell and amplified, resulting in ultra-high density flow cells with millions of clusters, each containing about 1,000 copies of the templates. The double stranded cDNA-adaptors were denatured and converted into single strand DNA, and then the template cDNAs were amplified one more time isothermally to produce surface-bound colonies. The clonal DNA clusters were linearized, free 3′ OH ends blocked, denatured, hybridized to sequencing primers, and sequenced. The sequencing was conducted by running 4 samples per lane with 51 pair-end cycles on the HISeq2000/1000. The Sequencing-by-Synthesis process used reversible terminators and a DNA polymerase modified to accept reversible terminator nucleotides. After each synthesis cycle the fluorescence of clusters was imaged with high sensitivity. Then the sequencing images were analyzed in three steps, image analysis, base calling, and sequence analysis. The Tophat software was used to align raw sequencing reads against the UCSC mm9 mouse reference genome, and Cufflinks software was employed to measure transcript abundances in the unit of fragments per kilobase of exon model per million mapped reads (FPKM), as well as to perform statistical analysis on the changes in gene expression. The heat maps for genes of interest were generated by R package software.

[6] = system: tongue lesions (4-NQO induced oral cavity carcinogenesis); experiment: 4-NQO mouse oral cavity carcinogenesis model: gross tongue lesion number and severity
[7] = down-regulated vs. 4-NQO group, KEGG
[8] = down-regulated vs. 4-NQO group, Reactome
[9] = upregulated vs. 4-NQO group, KEGG
[10] = upregulated vs. 4-NQO group, MouseCyc
[11] = upregulated vs. 4-NQO group, Reactome

SMILES: O=C(O)c1ccc(-c2ccc3cc(O)c(C45CC6CC(CC(C6)C4)C5)cc3c2)cc1 [CD1530]
- GO categories related to cell cycle, DNA replication, and mitosis [1]: most under-expressed
- over-represented GO categories [1]: over-representation of many GO categories, with some of them involved in lipid metabolism
- 4-HNE levels in tongue samples [2]: lower
- β-catenin protein levels in the tongue epithelium [3]: lower β-catenin protein levels
- consumption of drinking water containing drug vs regular drinking water [4]: comparable
- cytochrome P450 enzymes (pathway analysis) ([5]; compared to the 4-NQO group): significantly elevated
- candidates contained, pathway Cell cycle-Mus musculus (mouse) [5, 7]: 23 (18.1%)
- candidates contained, pathway DNA replication-Mus musculus (mouse) [5, 7]: 9 (25.0%)
- candidates contained, pathway ECM-receptor interaction-Mus musculus (mouse) [5, 7]: 13 (15.1%)
- candidates contained, pathway Pathways in cancer-Mus musculus (mouse) [5, 7]: 27 (8.4%)
- candidates contained, pathway Small cell lung cancer-Mus musculus (mouse) [5, 7]: 13 (14.9%)
- candidates contained, pathway p53 signaling pathway-Mus musculus (mouse) [5, 7]: 12 (17.4%)
- candidates contained, pathway Activation of ATR in response to replication stress [5, 8]: 11 (28.9%)
- candidates contained, pathway Activation of the pre-replicative complex [5, 8]: 11 (37.9%)
- candidates contained, pathway Assembly of the pre-replicative complex [5, 8]: 9 (40.9%)
- candidates contained, pathway Cell Cycle [5, 8]: 54 (17.8%)
- candidates contained, pathway Cell Cycle Checkpoints [5, 8]: 19 (24.7%)
- candidates contained, pathway Cell Cycle, Mitotic [5, 8]: 52 (19.4%)
- candidates contained, pathway Cyclin A/B1 associated events during G2/M transition [5, 8]: 6 (37.5%)
- candidates contained, pathway Cyclin B2 mediated events [5, 8]: 4 (80.0%)
- candidates contained, pathway DNA Replication [5, 8]: 41 (26.1%)
- candidates contained, pathway DNA Replication Pre-Initiation [5, 8]: 12 (33.3%)
- candidates contained, pathway DNA strand elongation [5, 8]: 8 (25.8%)
- candidates contained, pathway G1/S Transition [5, 8]: 14 (22.6%)
- candidates contained, pathway G2/M Checkpoints [5, 8]: 14 (31.1%)
- candidates contained, pathway M Phase [5, 8]: 27 (27.3%)
- candidates contained, pathway M/G1 Transition [5, 8]: 12 (33.3%)
- candidates contained, pathway Mitotic G1-G1/S phases [5, 8]: 16 (21.9%)
- candidates contained, pathway Mitotic M-M/G1 phases [5, 8]: 39 (28.9%)
- candidates contained, pathway Mitotic Prometaphase [5, 8]: 26 (27.4%)
- candidates contained, pathway Orc1 removal from chromatin [5, 8]: 8 (28.6%)
- candidates contained, pathway Regulation of DNA replication [5, 8]: 10 (33.3%)
- candidates contained, pathway Removal of licensing factors from origins [5, 8]: 10 (33.3%)
- candidates contained, pathway S Phase [5, 8]: 12 (17.4%)
- candidates contained, pathway Switching of origins to a post-replicative state [5, 8]: 8 (28.6%)
- candidates contained, pathway Synthesis of DNA [5, 8]: 11 (20.4%)
- candidates contained, pathway Unwinding of DNA [5, 8]: 6 (54.5%)
- candidates contained, pathway Arachidonic acid metabolism-Mus musculus (mouse) [5, 9]: 25 (26.6%)
- candidates contained, pathway Ascorbate and aldarate metabolism-Mus musculus (mouse) [5, 9]: 11 (42.3%)
- candidates contained, pathway Bile secretion-Mus musculus (mouse) [5, 9]: 23 (32.4%)
- candidates contained, pathway Biosynthesis of unsaturated fatty acids-Mus musculus (mouse) [5, 9]: 10 (40.0%)
- candidates contained, pathway Complement and coagulation cascades-Mus musculus (mouse) [5, 9]: 38 (50.0%)
- candidates contained, pathway Drug metabolism-cytochrome P450-Mus musculus (mouse) [5, 9]: 52 (59.8%)
- candidates contained, pathway Drug metabolism-other enzymes-Mus musculus (mouse) [5, 9]: 22 (39.3%)
- candidates contained, pathway Fatty acid metabolism-Mus musculus (mouse) [5, 9]: 13 (26.5%)
- candidates contained, pathway Glycine, serine and threonine metabolism-Mus musculus (mouse) [5, 9]: 12 (30.8%)
- candidates contained, pathway Linoleic acid metabolism-Mus musculus (mouse) [5, 9]: 24 (53.3%)
- candidates contained, pathway Maturity onset diabetes of the young-Mus musculus (mouse) [5, 9]: 11 (42.3%)
- candidates contained, pathway Metabolic pathways-Mus musculus (mouse) [5, 9]: 160 (13.4%)
- candidates contained, pathway Metabolism of xenobiotics by cytochrome P450-Mus musculus (mouse) [5, 9]: 50 (55.6%)
- candidates contained, pathway PPAR signaling pathway-Mus musculus (mouse) [5, 9]: 24 (29.6%)
- candidates contained, pathway Pentose and glucuronate interconversions-Mus musculus (mouse) [5, 9]: 11 (34.4%)
- candidates contained, pathway Peroxisome-Mus musculus (mouse) [5, 9]: 18 (22.8%)
- candidates contained, pathway Primary bile acid biosynthesis-Mus musculus (mouse) [5, 9]: 8 (50.0%)
- candidates contained, pathway Propanoate metabolism-Mus musculus (mouse) [5, 9]: 11 (34.4%)
- candidates contained, pathway Retinol metabolism-Mus musculus (mouse) [5, 9]: 42 (53.2%)
- candidates contained, pathway Serotonergic synapse-Mus musculus (mouse) [5, 9]: 24 (17.3%)
- candidates contained, pathway Steroid hormone biosynthesis-Mus musculus (mouse) [5, 9]: 19 (34.5%)
- candidates contained, pathway Tryptophan metabolism-Mus musculus (mouse) [5, 9]: 16 (36.4%)
- candidates contained, pathway Tyrosine metabolism-Mus musculus (mouse) [5, 9]: 11 (28.2%)
- candidates contained, pathway beta-Alanine metabolism-Mus musculus (mouse) [5, 9]: 10 (33.3%)
- candidates contained, pathway bupropion degradation [5, 10]: 29 (74.4%)
- candidates contained, pathway nicotine degradation II [5, 10]: 41 (65.1%)
- candidates contained, pathway nicotine degradation III [5, 10]: 35 (63.6%)
- candidates contained, pathway Activation of C3 and C5 [5, 11]: 5 (83.3%)
- candidates contained, pathway Bile acid and bile salt metabolism [5, 11]: 19 (50.0%)
- candidates contained, pathway Biological oxidations [5, 11]: 64 (40.5%)
- candidates contained, pathway Chylomicron-mediated lipid transport [5, 11]: 11 (61.1%)
- candidates contained, pathway Common Pathway [5, 11]: 9 (69.2%)
- candidates contained, pathway Complement cascade [5, 11]: 11 (39.3%)
- candidates contained, pathway Cytochrome P450-arranged by substrate type [5, 11]: 42 (51.2%)
- candidates contained, pathway Formation of Fibrin Clot (Clotting Cascade) [5, 11]: 18 (52.9%)
- candidates contained, pathway Gamma-carboxylation of protein precursors [5, 11]: 6 (66.7%)
- candidates contained, pathway Gamma-carboxylation, transport, and amino-terminal cleavage of proteins [5, 11]: 6 (60.0%)
- candidates contained, pathway HDL-mediated lipid transport [5, 11]: 9 (52.9%)
- candidates contained, pathway Intrinsic Pathway [5, 11]: 10 (50.0%)
- candidates contained, pathway Lipid digestion, mobilization, and transport [5, 11]: 18 (36.7%)
- candidates contained, pathway Lipoprotein metabolism [5, 11]: 16 (51.6%)
- candidates contained, pathway Metabolism [5, 11]: 181 (18.6%)
- candidates contained, pathway Metabolism of amino acids and derivatives [5, 11]: 34 (27.4%)
- candidates contained, pathway Metabolism of lipids and lipoproteins [5, 11]: 57 (21.8%)
- candidates contained, pathway Miscellaneous substrates [5, 11]: 10 (55.6%)
- candidates contained, pathway Phase 1-Functionalization of compounds [5, 11]: 51 (51.5%)
- candidates contained, pathway Phase II conjugation [5, 11]: 14 (23.3%)
- candidates contained, pathway Phenylalanine and tyrosine catabolism [5, 11]: 7 (87.5%)
- candidates contained, pathway Platelet degranulation [5, 11]: 19 (29.7%)
- candidates contained, pathway Recycling of bile acids and salts [5, 11]: 7 (50.0%)
- candidates contained, pathway Removal of aminoterminal propeptides from gamma-carboxylated proteins [5, 11]: 6 (66.7%)
- candidates contained, pathway Response to elevated platelet cytosolic Ca2+ [5, 11]: 19 (27.1%)
- candidates contained, pathway Synthesis of bile acids and bile salts [5, 11]: 15 (55.6%)
- candidates contained, pathway Synthesis of bile acids and bile salts via 7alpha-hydroxycholesterol [5, 11]: 15 (65.2%)
- candidates contained, pathway Synthesis of bile acids and bile salts via 24-hydroxycholesterol [5, 11]: 11 (61.1%)
- candidates contained, pathway Synthesis of bile acids and bile salts via 27-hydroxycholesterol [5, 11]: 8 (57.1%)
- candidates contained, pathway Terminal pathway of complement [5, 11]: 5 (83.3%)
- candidates contained, pathway Transport of gamma-carboxylated protein precursors from the ER to the Golgi apparatus [5, 11]: 6 (75.0%)
- candidates contained, pathway Xenobiotics [5, 11]: 31 (81.6%)
- number of tongue lesions (gross tongue lesion multiplicity) ([6]; C57BL/6 female mice, 4-NQO 10 weeks, then drug in 15 week post 4-NQO period, bexarotene 300 mg/kg diet, CD1530 […]100 ml drinking water, 4-NQO group 5.9±3.2): 3.9±1.7
- average severity of tongue lesions (grade 0-4) ([6]; same model, 4-NQO group 2.8±0.8): 1.6±0.8
